Test results taken from ChEMBL document CHEMBL4376896, “Synthesis of Novel Potent Archazolids: Pharmacology of an Emerging Class of Anticancer Drugs” (J Med Chem, 2020).
≈ marks a conversion by molar mass, not a printed value. Calls of active or inactive are those of the source. No cut-off for these calls is given here.

Columns and labels:
[1] = Intrinsic clearance in CD1 mouse liver microsomes at 1 uM; assay type: ADME, Microsome; conditions: read-out: CLH
[2] = Intrinsic clearance in Sprague-Dawley rat liver microsomes at 1 uM; assay type: ADME, Microsome; conditions: read-out: CLH
[3] = target: T1, P2X purinoceptor 3 (Homo sapiens, UniProt P56373); assay: Inhibition of human P2X3 assessed as reduction in agonist-induced intracellular Ca2+ concentration pre-incubated for 30 mins before agonist addition by calcium 5 dye based fluorescence assay; assay type: cell-based
T1 sequence (P56373 whole entry): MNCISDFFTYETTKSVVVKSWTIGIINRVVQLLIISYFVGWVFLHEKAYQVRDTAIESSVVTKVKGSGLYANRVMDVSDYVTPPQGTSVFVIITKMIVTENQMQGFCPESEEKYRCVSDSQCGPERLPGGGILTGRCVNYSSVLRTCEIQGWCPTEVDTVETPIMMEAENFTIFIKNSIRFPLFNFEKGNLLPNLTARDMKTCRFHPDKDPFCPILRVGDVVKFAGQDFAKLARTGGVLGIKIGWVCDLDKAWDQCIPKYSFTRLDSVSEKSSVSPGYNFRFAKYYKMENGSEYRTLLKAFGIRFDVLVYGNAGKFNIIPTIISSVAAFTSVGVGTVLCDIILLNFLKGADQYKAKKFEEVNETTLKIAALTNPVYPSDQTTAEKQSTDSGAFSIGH

[4] = target: T2, Adenosine receptor A3 (Homo sapiens, UniProt P0DMS8); assay: Displacement of [3H]PSB-11 from human A3 adenosine receptor expressed in CHO cell membranes incubated for 60 mins by liquid scintillation counting method
T2 sequence (P0DMS8 whole entry): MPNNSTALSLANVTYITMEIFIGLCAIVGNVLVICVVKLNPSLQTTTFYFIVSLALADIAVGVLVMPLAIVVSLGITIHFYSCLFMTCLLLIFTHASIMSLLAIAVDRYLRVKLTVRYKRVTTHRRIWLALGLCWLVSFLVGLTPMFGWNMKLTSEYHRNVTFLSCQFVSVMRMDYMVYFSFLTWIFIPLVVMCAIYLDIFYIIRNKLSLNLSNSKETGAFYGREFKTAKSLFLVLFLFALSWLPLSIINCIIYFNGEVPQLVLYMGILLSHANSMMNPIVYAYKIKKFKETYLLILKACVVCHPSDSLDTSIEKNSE

[5] = target: T3, Neutrophil elastase (Homo sapiens, UniProt P08246); assay: Inhibition of human leukocyte elastase assessed as reduction in pNA release using chromogenic MeO-Suc-Ala-Ala-Pro-Val-pNA substrate measured over 10 mins by spectrophotometry; conditions: read-out: IC50
T3 sequence (P08246 whole entry): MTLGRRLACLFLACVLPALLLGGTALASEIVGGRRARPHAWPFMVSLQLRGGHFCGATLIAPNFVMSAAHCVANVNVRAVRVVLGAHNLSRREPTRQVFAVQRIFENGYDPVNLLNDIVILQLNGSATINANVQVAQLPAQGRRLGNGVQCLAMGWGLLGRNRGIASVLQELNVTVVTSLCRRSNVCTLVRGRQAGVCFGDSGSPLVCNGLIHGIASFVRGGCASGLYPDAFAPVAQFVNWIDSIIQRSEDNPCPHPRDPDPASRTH

[6] = target: P2X purinoceptor 3 (Homo sapiens) (UniProt P56373); assay: Inhibition of human P2X3 expressed in human 1321N1 cell membranes assessed as reduction in ATP-induced inhibition of [35S]ATPgammaS binding at 1 pm to 10 mM
[7] = target: Trypsin (Homo sapiens) (UniProt P07477+P07478+P35030); assay: Inhibition of trypsin (unknown origin) assessed as reduction in pNA release using chromogenic Suc-Ala-Ala-Pro-Arg-pNA substrate measured over 10 mins by spectrophotometry; assay type: protein assay
[8] = target: Cathepsin B (Homo sapiens) (UniProt P07858); assay: Inhibition of cathepsin B (unknown origin) assessed as reduction in pNA release using chromogenic Z-Arg-Arg-pNA substrate measured over 1 hr by spectrophotometry
[9] = target: Procathepsin L (Homo sapiens) (UniProt P07711); assay: Inhibition of cathepsin L (unknown origin) assessed as reduction in pNA release using chromogenic Z-Phe-Arg-pNA substrate measured over 1 hr by spectrophotometry
Chain of Procathepsin L (Homo sapiens) (P07711 114-333 limits assumed): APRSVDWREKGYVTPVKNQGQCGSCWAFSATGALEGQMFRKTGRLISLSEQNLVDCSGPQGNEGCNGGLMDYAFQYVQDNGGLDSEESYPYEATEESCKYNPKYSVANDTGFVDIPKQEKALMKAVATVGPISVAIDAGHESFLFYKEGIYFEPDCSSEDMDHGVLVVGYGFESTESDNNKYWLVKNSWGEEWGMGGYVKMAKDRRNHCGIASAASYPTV

[10] = target: Chymotrypsin (Homo sapiens) (UniProt Q99895+P17538+P40313+Q6GPI1); assay: Inhibition of chymotrypsin (unknown origin) assessed as reduction in pNA release using chromogenic Suc-Ala-Ala-Pro-Phe-pNA substrate measured over 12.5 mins by spectrophotometry; assay type: protein assay
[11] = Intrinsic clearance in human liver microsomes at 1 uM; assay type: ADME, Microsome; conditions: read-out: CLH
[12] = Half life in CD1 mouse liver microsomes at 1 uM; assay type: ADME, Microsome
[13] = Half life in Sprague-Dawley rat liver microsomes at 1 uM; assay type: ADME, Microsome
[14] = Half life in human liver microsomes at 1 uM; assay type: ADME, Microsome
[15] = Stability in CD1 mouse liver microsomes assessed as drug degradation at 1 uM measured within 15 mins; assay type: ADME, Microsome; conditions: read-out: Drug degradation
[16] = Stability in Sprague-Dawley rat liver microsomes assessed as drug degradation at 1 uM measured within 15 mins; assay type: ADME, Microsome; conditions: read-out: Drug degradation
[17] = Stability in human liver microsomes assessed as drug degradation at 1 uM measured within 15 mins; assay type: ADME, Microsome; conditions: read-out: Drug degradation
[18] = Kinetic aqueous solubility of the compound; assay type: physicochemical; conditions: buffer; read-out: Kinetic_solubility
[19] = Permeability in human Caco2 cells at 10 uM; assay type: ADME, cell-based; conditions: caco-2, 10 µM
[20] = target: Cytochrome P450 1A2 (Homo sapiens, UniProt P05177); assay: Inhibition of recombinant human CYP1A2 at 100 nM; assay type: ADME; conditions: recombinant enzyme, 0.1 µM
Chain of Cytochrome P450 1A2 (P05177 whole entry): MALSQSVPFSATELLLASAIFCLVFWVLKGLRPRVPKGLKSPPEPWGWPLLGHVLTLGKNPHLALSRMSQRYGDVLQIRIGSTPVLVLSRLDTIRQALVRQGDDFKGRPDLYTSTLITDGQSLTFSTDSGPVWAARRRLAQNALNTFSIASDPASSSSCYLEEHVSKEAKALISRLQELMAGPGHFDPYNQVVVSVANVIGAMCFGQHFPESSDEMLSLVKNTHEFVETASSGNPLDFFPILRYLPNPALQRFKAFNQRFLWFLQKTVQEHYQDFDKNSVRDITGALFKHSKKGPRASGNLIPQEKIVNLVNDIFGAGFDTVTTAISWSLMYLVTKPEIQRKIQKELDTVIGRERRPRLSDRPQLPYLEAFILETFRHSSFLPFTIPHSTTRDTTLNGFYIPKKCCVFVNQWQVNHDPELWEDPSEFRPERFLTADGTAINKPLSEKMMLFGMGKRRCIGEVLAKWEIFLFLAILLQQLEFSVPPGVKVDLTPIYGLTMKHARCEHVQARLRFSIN

[21] = target: Cytochrome P450 2B6 (Homo sapiens, UniProt P20813); assay: Inhibition of recombinant human CYP2B6 at 100 nM; assay type: ADME; conditions: recombinant enzyme, 0.1 µM
Chain of Cytochrome P450 2B6 (P20813 whole entry): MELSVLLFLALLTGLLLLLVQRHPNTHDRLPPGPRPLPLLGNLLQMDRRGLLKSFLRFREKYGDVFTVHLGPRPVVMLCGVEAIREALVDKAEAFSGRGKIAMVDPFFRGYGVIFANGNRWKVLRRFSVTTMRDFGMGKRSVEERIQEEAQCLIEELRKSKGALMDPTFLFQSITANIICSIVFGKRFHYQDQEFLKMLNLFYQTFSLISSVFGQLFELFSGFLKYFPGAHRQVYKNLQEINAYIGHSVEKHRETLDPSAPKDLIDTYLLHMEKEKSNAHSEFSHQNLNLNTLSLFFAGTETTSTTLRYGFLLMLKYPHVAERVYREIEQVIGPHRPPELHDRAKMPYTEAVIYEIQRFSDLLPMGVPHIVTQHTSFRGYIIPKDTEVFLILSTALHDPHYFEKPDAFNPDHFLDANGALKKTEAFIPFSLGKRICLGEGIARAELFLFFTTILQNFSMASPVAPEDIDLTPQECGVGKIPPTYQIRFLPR

[22] = target: T4, Cytochrome P450 2C9 (Homo sapiens, UniProt P11712); assay: Inhibition of recombinant human CYP2C9 at 100 nM; assay type: ADME; conditions: recombinant enzyme, 0.1 µM
T4 sequence (P11712 whole entry): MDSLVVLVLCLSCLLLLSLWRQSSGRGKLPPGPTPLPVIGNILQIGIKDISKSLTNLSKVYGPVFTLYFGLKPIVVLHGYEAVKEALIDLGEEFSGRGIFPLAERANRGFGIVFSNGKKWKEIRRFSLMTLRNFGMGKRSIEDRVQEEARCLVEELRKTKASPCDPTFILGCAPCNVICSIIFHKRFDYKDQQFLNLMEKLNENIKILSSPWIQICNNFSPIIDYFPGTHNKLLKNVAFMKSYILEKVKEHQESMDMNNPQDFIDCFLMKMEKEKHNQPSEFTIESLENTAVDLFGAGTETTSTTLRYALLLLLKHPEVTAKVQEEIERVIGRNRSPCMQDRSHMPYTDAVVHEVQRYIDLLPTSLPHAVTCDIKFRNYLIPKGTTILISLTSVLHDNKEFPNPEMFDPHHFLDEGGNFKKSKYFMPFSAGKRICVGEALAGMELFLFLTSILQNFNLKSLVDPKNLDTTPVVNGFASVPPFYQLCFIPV

[23] = target: T5, Cytochrome P450 2C19 (Homo sapiens, UniProt P33261); assay: Inhibition of recombinant human CYP2C19 at 100 nM; assay type: ADME; conditions: recombinant enzyme, 0.1 µM
T5 sequence (P33261 whole entry): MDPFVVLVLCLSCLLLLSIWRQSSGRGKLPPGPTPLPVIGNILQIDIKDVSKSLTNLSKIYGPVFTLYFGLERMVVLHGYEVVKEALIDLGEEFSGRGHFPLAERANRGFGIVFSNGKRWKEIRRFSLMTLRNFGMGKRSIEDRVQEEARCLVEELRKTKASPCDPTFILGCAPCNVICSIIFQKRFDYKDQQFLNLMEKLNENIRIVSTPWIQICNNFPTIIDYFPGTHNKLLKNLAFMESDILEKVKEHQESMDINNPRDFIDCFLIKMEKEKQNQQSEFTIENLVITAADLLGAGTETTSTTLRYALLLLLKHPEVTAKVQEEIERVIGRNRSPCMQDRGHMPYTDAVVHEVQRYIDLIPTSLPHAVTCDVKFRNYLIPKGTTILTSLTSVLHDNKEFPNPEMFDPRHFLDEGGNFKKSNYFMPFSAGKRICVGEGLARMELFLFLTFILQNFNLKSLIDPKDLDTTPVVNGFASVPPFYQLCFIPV

[24] = target: Cytochrome P450 2D6 (Homo sapiens, UniProt P10635); assay: Inhibition of recombinant human CYP2D6 at 100 nM; assay type: ADME; conditions: recombinant enzyme, 0.1 µM
Chain of Cytochrome P450 2D6 (P10635 whole entry): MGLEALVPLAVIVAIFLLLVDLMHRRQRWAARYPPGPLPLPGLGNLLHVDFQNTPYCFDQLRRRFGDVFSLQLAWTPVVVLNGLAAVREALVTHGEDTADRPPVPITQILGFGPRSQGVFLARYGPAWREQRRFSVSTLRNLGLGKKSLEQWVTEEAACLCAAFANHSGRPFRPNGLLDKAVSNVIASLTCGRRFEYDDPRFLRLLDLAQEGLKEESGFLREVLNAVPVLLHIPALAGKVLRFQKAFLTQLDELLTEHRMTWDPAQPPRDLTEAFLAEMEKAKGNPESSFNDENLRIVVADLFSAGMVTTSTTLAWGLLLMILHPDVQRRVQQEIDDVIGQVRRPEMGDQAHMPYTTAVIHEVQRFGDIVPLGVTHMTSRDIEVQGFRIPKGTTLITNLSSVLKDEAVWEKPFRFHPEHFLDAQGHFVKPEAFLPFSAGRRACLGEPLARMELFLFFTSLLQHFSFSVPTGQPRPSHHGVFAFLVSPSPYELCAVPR

[25] = target: T6, Cytochrome P450 3A4 (Homo sapiens, UniProt P08684); assay: Inhibition of recombinant human CYP3A4 at 100 nM; assay type: ADME; conditions: recombinant enzyme, 0.1 µM
T6 sequence (P08684 whole entry): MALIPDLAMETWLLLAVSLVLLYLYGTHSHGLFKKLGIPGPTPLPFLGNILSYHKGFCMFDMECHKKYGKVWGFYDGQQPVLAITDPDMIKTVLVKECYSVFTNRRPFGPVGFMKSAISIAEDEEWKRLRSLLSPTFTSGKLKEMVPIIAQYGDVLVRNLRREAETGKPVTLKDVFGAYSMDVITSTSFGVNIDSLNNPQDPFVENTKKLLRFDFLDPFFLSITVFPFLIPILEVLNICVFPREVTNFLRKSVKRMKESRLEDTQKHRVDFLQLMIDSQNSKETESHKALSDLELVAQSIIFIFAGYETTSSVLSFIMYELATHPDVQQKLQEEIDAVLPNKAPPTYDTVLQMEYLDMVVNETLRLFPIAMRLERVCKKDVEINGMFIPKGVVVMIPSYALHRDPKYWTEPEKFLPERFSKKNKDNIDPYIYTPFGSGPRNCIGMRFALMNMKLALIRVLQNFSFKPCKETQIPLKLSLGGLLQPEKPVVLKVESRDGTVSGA

[26] = target: T4, Cytochrome P450 2C9; assay: Inhibition of recombinant human CYP2C9 at 1 uM; assay type: ADME; conditions: recombinant enzyme
[27] = target: T5, Cytochrome P450 2C19; assay: Inhibition of recombinant human CYP2C19 at 1 uM; assay type: ADME; conditions: recombinant enzyme
[28] = target: T6, Cytochrome P450 3A4; assay: Inhibition of recombinant human CYP3A4 at 1 uM; assay type: ADME; conditions: recombinant enzyme
[29] = cells; conditions: Homo sapiens, 1321-N1, 72 h
Description: Growth inhibition of human 1321N1 cells incubated for 72 hrs by MTT assay

## CNC(=O)O[C@@H](CC(C)C)c1nc([C@H]2OC(=O)/C=C/C/C(C)=C/[C@@H](O)[C@@H](C)\C=C(C)/C=C(C)\C=C\[C@@H](O)[C@H](C)[C@H](OC)/C(C)=C/C=C/[C@@H]2C)cs1 [ARCHAZOLID B]
[1]
  microsomal CLint at 1 µM: 495 µL/min/mg
[2]
  microsomal CLint at 1 µM: 301 µL/min/mg
[3]
  IC50: 353 nM
[4]
  Ki: 1180 nM
[5]
  IC50: 316 nM
[6]
  inhibition: inactive
[7]
  inhibition: inactive
[8]
  inhibition: inactive
[9]
  inhibition: inactive
[10]
  inhibition: inactive
[11]
  microsomal CLint at 1 µM: 533 µL/min/mg
[12]
  half-life at 1 µM: 2.8 min
[13]
  half-life at 1 µM: 4.6 min
[14]
  half-life at 1 µM: 2.6 min
[15]
  metabolised at 0.25 h, 1 µM: 100%
[16]
  metabolised at 0.25 h, 1 µM: 100%
[17]
  metabolised at 0.25 h, 1 µM: 100%
[18]
  solubility kinetic: 1.6 µM (≈ 1.16 µg/mL)
[19]
  permeability: Impermeable
[20]
  inhibition (INH): Active
[21]
  inhibition (INH): Active
[22]
  inhibition (INH): Active
[23]
  inhibition (INH): Active
[24]
  inhibition (INH): Active
[25]
  inhibition (INH): Active
[26]
  inhibition (INH): Active
[27]
  inhibition (INH): Active
[28]
  inhibition (INH): Active
[29]
  IC50: 0.145 nM
